Experimental data reported in ChEMBL document CHEMBL1130579, “Design and synthesis of curacin a analogs with varied side chain structures” (Bioorg Med Chem Lett, 1997).
Converted amounts (≈) assume the structure as drawn.

How the values were obtained:
PC-9 = experiment: Compound was tested for its cytotoxicity against PC-9 human lung cancer cell line; format: functional, cell-based
WiDr = experiment: Compound was tested for its cytotoxicity against WiDr human colon cancer cell line; format: functional, cell-based
NCI-H69 = experiment: Compound was tested for its cytotoxicity against NCI-H69 human lung cancer cell line; format: functional, cell-based
Tubulin alpha chain [1] = biological target: T1, Tubulin alpha chain (Sus scrofa, UniProt P02550); experiment: Compound was tested for inhibitory activity against tubulin polymerization; format: functional
T1 sequence (P02550 whole entry, looked up): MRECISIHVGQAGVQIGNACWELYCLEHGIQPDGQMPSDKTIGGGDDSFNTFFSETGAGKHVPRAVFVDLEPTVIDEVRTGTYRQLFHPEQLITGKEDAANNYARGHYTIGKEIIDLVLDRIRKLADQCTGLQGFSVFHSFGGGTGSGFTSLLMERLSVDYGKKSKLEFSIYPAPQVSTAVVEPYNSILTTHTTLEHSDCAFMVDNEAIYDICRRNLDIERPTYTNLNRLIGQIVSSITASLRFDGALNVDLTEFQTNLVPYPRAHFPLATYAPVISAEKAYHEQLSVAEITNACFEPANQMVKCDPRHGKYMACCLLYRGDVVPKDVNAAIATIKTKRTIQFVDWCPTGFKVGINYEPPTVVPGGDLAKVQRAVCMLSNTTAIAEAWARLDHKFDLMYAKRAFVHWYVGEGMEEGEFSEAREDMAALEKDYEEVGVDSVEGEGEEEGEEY

[2] = biological target: Tubulin alpha chain (Sus scrofa) (UniProt P02550); experiment: Compound was tested for percentage of tubulin polymerized at 50 uM dose of compound; format: functional
Chain of Tubulin alpha chain (Sus scrofa) (P02550 whole entry, looked up): as above

Tubulin alpha chain [3] = biological target: T1, Tubulin alpha chain; experiment: Compound was evaluated for its anti tubulin activity

SMILES	IC50 (Tubulin alpha chain [1]) [µM]	Activity [2] [%]	IC50 (PC-9) [µg/mL]	IC50 (WiDr) [µg/mL]	IC50 (NCI-H69) [µg/mL]	IC50 (Tubulin alpha chain [3]) [µM]
CCCCCCCCCCCC/C=C\[C@@H]1CSC([C@@H]2C[C@@H]2C)=N1	> 50	100	77.2 (≈ 230 µM)	84.9 (≈ 253 µM)	54.1 (≈ 161 µM)	–
C=CC[C@@H](CC/C(C)=C/C=C/CC/C=C\[C@@H]1CSC([C@@H]2C[C@@H]2C)=N1)OC [CURACIN A]	2.5	–	19.6 (≈ 52.5 µM)	< 0.2	0.89 (≈ 2.38 µM)	–
C=CC[C@@H](CC/C(C)=C/C=C/CC/C=C\[C@@H]1CSC(C2CC2C)=N1)OC (single isomer, unassigned) [CURACIN A]	–	–	–	–	–	2.5
CCCCCCc1ccc(CC/C=C\[C@@H]2CSC([C@@H]3C[C@@H]3C)=N2)cc1	> 50	95	50.2 (≈ 141 µM)	42.5 (≈ 119 µM)	76.5 (≈ 215 µM)	–

Now from value to compound, other results behind:

IC50 (Tubulin alpha chain [1]) [µM]	Activity [2] [%]	SMILES	IC50 (PC-9) [µg/mL]	IC50 (WiDr) [µg/mL]	IC50 (NCI-H69) [µg/mL]	IC50 (Tubulin alpha chain [3]) [µM]
> 50	71	C[C@H]1C[C@H]1C1=N[C@H](/C=C\CCc2ccccc2)CS1	30.1 (≈ 111 µM)	19.6 (≈ 72.3 µM)	34.1 (≈ 125 µM)	–
> 50	93	C[C@H]1C[C@H]1C1=N[C@H](/C=C\CCCc2ccccc2)CS1	24 (≈ 84 µM)	19.3 (≈ 67.6 µM)	45.2 (≈ 158 µM)	–
> 50	84	C/C=C/CC/C=C\[C@@H]1CSC([C@@H]2C[C@@H]2C)=N1	37.7 (≈ 160 µM)	33.7 (≈ 143 µM)	31.7 (≈ 135 µM)	–
> 50	85	CCCCCCCc1cccc(CC/C=C\[C@@H]2CSC([C@@H]3C[C@@H]3C)=N2)c1	35.5 (≈ 96.1 µM)	69.3 (≈ 187 µM)	64.7 (≈ 175 µM)	–
> 50	100	CC(C)=C/C=C/CC/C=C\[C@@H]1CSC([C@@H]2C[C@@H]2C)=N1	–	–	–	–
